From ChEMBL document CHEMBL5257106, “Design, synthesis, and biological evaluation of novel HDAC inhibitors with a 3-(benzazol-2-yl)quinoxaline framework” (Bioorg Med Chem Lett, 2023)
Calls of active or inactive are those of the source. The calls are words filed in the database; no cut-off is given here.

Assays:
[1] = test system: HCT-116; assay: Induction of ROS production in human HCT-116 cells by flow cytometric analysis; format: functional, cell-based; conditions: dose 0.5-1 µM
[2] = test system: HCT-116; assay: Induction of apoptosis in human HCT-116 cells assessed as late apoptotic cells at 1 uM incubated for 24 hrs by Annexin V-FITC/PI staining based flow cytometry analysis (reference value: 0.323%); format: functional
[3] = test system: HCT-116; assay: Induction of cell cycle arrest in human HCT-116 assessed as increase in G2/M phase cells at 0.5 uM incubated for 48 hrs by flow cytometric analysis (reference value: 23.70%); format: functional
[4] = target: T1, DNA topoisomerase 1 (Homo sapiens) (UniProt P11387); assay: Inhibition of topoisomerase 1 (unknown origin) mediated DNA relaxation assessed as delay in pBR322 DNA migration by gel electrophoresis assay
T1 sequence (whole entry): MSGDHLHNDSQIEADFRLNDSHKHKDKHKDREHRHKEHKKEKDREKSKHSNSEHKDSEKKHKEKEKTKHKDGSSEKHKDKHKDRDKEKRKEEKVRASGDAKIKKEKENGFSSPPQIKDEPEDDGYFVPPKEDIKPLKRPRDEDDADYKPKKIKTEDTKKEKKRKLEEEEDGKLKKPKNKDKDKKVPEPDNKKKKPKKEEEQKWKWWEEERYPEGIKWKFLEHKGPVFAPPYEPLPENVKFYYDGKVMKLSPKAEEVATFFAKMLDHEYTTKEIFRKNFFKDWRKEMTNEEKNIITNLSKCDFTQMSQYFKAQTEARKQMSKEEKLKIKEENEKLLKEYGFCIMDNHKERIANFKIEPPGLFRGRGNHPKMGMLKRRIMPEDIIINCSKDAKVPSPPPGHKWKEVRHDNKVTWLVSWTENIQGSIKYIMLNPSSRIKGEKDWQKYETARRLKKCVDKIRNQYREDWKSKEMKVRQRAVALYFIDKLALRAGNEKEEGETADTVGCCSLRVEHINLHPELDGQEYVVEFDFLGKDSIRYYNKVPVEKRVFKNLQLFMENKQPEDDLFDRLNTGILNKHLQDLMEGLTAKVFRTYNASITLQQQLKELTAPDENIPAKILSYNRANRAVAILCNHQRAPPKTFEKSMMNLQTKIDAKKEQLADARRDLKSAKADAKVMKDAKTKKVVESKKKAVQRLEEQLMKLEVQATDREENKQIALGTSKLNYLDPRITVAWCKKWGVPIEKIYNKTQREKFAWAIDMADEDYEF

[5] = test system: HCT-116; assay: Induction of apoptosis in human HCT-116 cells assessed as total apoptotic cells at 0.5 uM incubated for 24 hrs by Annexin V-FITC/PI staining based flow cytometry analysis (reference value: 6.823%); format: functional
[6] = test system: HCT-116; assay: Inhibition of cell migration in human HCT-116 cells measured upto 12 hrs by wound healing assay; format: functional, cell-based; conditions: dose 0.5-1 µM
[7] = test system: HCT-116; assay: Induction of apoptosis in human HCT-116 cells assessed as early apoptotic cells at 1 uM incubated for 24 hrs by Annexin V-FITC/PI staining based flow cytometry analysis (reference value: 6.50%); format: functional
[8] = target: T2, Protein deacetylase HDAC6 (Homo sapiens, UniProt Q9UBN7); assay: Inhibition of HDAC6 (unknown origin)
T2 sequence (Q9UBN7 whole entry): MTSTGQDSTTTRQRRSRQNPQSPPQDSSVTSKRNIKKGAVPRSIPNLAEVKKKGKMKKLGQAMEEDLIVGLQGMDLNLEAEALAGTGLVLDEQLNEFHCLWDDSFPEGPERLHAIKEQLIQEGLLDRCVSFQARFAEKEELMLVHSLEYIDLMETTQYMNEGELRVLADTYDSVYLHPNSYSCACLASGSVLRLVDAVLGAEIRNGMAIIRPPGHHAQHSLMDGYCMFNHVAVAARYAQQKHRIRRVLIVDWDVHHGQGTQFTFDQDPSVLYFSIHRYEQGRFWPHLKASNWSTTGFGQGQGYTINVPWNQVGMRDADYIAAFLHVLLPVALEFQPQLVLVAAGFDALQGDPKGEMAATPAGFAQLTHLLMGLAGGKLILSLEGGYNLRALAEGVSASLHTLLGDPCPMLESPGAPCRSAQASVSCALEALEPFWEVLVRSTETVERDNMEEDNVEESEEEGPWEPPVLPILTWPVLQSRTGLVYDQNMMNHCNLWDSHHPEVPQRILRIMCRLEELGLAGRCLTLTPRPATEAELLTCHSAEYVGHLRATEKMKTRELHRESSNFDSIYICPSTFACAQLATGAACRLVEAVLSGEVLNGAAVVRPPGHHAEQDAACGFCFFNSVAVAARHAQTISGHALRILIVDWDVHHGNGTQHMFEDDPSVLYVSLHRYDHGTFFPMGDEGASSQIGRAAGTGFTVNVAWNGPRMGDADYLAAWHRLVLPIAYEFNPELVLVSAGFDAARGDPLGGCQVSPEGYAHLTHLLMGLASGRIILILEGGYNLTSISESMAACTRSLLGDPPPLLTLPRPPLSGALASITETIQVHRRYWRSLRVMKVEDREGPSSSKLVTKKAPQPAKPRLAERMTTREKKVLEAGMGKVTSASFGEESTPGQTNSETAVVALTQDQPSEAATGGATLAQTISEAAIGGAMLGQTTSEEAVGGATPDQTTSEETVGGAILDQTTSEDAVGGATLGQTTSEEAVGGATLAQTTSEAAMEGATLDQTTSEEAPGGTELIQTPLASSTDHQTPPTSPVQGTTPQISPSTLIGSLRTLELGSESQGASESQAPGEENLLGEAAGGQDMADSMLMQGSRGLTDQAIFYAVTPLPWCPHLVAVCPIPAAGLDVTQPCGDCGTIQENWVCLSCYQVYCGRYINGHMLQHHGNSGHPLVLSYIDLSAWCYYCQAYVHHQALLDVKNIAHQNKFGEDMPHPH

[9] = test system: PANC-1; assay: Antiproliferative activity against human PANC-1 cells assessed as inhibition of cell growth by MTT assay; format: functional, cell-based
[10] = test system: HCT-116; assay: Potency index, ratio of SAHA IC50 to test compound IC50 for antiproliferative activity against human HCT-116 cells assessed as inhibition of cell growth by MTT assay; format: functional
[11] = test system: HCT-116; assay: Induction of apoptosis in human HCT-116 cells assessed as activation of caspase pathway incubated for 24 hrs by Western blot analysis; format: functional, cell-based; conditions: dose 0.5-1 µM
[12] = test system: HCT-116; assay: Induction of cell cycle arrest in human HCT-116 assessed as S phase cells at 0.5 uM incubated for 48 hrs by flow cytometric analysis (reference value: 12.79%); format: functional
[13] = target: Histone deacetylase 1 (Homo sapiens, UniProt Q13547); assay: Inhibition of HDAC1 (unknown origin)
Chain of Histone deacetylase 1 (Q13547 whole entry): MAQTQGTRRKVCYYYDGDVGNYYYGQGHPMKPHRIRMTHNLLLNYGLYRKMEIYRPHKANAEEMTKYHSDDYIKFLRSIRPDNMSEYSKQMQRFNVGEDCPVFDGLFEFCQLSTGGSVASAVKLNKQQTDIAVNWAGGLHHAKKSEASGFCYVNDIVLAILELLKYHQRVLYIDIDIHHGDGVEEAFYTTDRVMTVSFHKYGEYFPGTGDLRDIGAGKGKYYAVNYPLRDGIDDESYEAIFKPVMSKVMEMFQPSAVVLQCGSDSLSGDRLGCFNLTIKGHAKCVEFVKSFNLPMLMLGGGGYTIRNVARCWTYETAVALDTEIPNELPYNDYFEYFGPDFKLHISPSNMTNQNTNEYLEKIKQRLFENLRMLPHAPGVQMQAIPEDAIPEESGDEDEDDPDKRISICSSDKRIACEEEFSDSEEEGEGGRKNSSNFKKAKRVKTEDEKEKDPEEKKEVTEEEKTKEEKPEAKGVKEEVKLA

[14] = test system: HCT-116; assay: Induction of cell cycle arrest in human HCT-116 assessed as increase in G2/M phase cells at 1 uM incubated for 48 hrs by flow cytometric analysis (reference value: 23.70%); format: functional

SMILES: O=C(CCCCCCNc1nc2ccccc2nc1-c1nc2ccccc2o1)NO
- Activity [1]: Dose-Dependent Effect
- Activity [2]: 17.3%
- Activity [3]: 36.67%
- inhibition [4]: Active
- Activity [5]: 35.31%
- inhibition [6]: Dose-Dependent Effect
- Activity [7]: 34.5%
- IC50 [8]: 0.0447 µM
- IC50 [9]: 1.03 µM
- Ratio IC50 [10]: 6
- Activity [11]: Dose-Dependent Effect
- Activity [12]: 11.65%
- IC50 [13]: 0.011 µM
- Activity [14]: 39.64%
